Test results taken from patent US10118916B2, “Modulators of cystic fibrosis transmembrane conductance regulator protein” (AbbVie S.à.r.l., priority 2016, dated 2018).

Biological target: T1, F508delCFTR (Homo sapiens, UniProt P13569, DEL508-508)
T1 construct: expressed in transfected cells; host or cells: CFBE41o- (human lung derived epithelial cell line), doxycycline-inducible
Assay: Cell Surface Expression-Horse Radish Peroxidase (CSE-HRP) assay
Assay type: cell-based
Conditions: CFBE41o-F508delCFTR-HRP cells; for EC50: F508delCFTR cell surface expression, luminescence, 18-24 hours at 33° C., highest concentration 20 μM; for Maximum % activity: maximum at any tested concentration, normalized to on-plate positive control (3 μM)
Procedure, shortened: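 CFBE41o- cells expressing doxycycline-induced (0.5 μg/mL, 72 h at 37 °C) F508delCFTR with HRP in the fourth extracellular loop; compounds 8 points, 3-fold from 20 μM, 18-24 h at 33 °C. Surface HRP measured by luminol luminescence, normalised to DMSO and 3 μM reference corrector; EC50 from variable-slope sigmoidal fit of triplicate plates.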

T1 sequence (P13569 with tags, fused parts or gaps DEL508-508): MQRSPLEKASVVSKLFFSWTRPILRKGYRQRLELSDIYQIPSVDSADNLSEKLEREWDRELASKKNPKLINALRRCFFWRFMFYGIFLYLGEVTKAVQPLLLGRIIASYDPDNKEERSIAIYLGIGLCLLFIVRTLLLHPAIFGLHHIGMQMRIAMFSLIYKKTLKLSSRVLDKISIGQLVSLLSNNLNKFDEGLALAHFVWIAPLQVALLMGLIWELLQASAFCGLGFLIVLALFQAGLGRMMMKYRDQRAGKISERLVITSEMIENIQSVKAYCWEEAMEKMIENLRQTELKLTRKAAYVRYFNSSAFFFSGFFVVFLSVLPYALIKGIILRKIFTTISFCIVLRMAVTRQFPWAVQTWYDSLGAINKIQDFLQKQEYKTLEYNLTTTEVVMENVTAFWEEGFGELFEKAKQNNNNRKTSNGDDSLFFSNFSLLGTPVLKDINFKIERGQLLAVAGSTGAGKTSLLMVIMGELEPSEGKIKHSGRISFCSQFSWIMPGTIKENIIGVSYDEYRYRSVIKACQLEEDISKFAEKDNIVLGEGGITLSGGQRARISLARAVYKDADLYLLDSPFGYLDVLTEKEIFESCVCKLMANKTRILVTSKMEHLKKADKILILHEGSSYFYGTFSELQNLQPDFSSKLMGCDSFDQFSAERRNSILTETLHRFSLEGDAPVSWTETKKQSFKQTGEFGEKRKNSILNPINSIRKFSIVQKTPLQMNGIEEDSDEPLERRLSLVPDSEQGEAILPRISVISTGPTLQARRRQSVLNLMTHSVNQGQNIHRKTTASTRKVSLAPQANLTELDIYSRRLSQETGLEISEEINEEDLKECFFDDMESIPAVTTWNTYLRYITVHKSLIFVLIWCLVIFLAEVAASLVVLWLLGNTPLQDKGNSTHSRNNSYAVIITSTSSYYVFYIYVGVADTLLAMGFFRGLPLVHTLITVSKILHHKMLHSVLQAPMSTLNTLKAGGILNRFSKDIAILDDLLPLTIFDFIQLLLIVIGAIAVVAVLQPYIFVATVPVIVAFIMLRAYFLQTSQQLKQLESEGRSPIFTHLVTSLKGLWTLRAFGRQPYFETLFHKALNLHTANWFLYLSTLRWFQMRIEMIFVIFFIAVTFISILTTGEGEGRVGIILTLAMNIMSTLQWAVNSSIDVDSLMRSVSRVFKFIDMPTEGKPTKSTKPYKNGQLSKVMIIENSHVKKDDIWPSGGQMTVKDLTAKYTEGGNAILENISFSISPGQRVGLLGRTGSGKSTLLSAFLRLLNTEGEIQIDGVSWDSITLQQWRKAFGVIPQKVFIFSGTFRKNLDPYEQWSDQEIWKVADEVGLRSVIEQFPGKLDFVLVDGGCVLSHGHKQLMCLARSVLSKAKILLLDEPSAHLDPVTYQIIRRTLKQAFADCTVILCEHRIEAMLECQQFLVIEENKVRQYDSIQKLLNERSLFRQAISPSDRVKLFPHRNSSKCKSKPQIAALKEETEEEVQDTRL

Compound | EC50 [nM] | Maximum % activity [%]
COc1ccc2c(c1)O[C@@H](c1ccc(C(=O)O)cc1)C[C@H]2NC(=O)C1(c2ccc(C#N)cc2)CC1 [Example 92, 4-[(2R,4R)-4-{[1-(4-cyanophenyl)cyclopropane-1-carbonyl]amino}-7-methoxy-3,4-dihydro-2H-1-benzopyran-2-yl]benzoic acid] | 350 | 62.0
COc1ccc2c(c1)O[C@@H](c1ccc(C(=O)O)cc1)C[C@H]2NC(=O)C1(c2ccc(F)cc2)CCCC1 [Example 93, 4-[(2R,4R)-4-{[1-(4-fluorophenyl)cyclopentane-1-carbonyl]amino}-7-methoxy-3,4-dihydro-2H-1-benzopyran-2-yl]benzoic acid] | > 20000 | 5.7
COc1ccc2c(c1)O[C@@H](c1ccc(C(=O)O)cc1)C[C@H]2NC(=O)C1(c2ccc(Cl)c(Cl)c2)CCC1 [Example 95, 4-[(2R,4R)-4-{[1-(3,4-dichlorophenyl)cyclobutane-1-carbonyl]amino}-7-methoxy-3,4-dihydro-2H-1-benzopyran-2-yl]benzoic acid] | 1330 | 76.0
COc1ccc2c(c1)O[C@@H](c1ccc(C(=O)O)cc1)C[C@H]2NC(=O)C1(c2ccc(Cl)cc2)CCCC1 [Example 98, 4-[(2R,4R)-4-{[1-(4-chlorophenyl)cyclopentane-1-carbonyl]amino}-7-methoxy-3,4-dihydro-2H-1-benzopyran-2-yl]benzoic acid] | > 20000 | 13.0
COc1ccc2c(c1)O[C@@H](c1ccc(C(=O)O)cc1)C[C@H]2NC(=O)C(C)(C)Oc1ccc2c(c1)OCO2 [Example 99, 4-[(2R,4R)-4-{2-[(2H-1,3-benzodioxol-5-yl)oxy]-2-methylpropanamido}-7-methoxy-3,4-dihydro-2H-1-benzopyran-2-yl]benzoic acid] | > 20000 | 15.9
COc1ccc2c(c1)CC[C@@]2(C)C(=O)N[C@@H]1C[C@H](c2ccc(C(=O)O)cc2)Oc2cc(OC)ccc21 [Example 100, 4-[(2R,4R)-7-methoxy-4-{[(1R)-5-methoxy-1-methyl-2,3-dihydro-1H-indene-1-carbonyl]amino}-3,4-dihydro-2H-1-benzopyran-2-yl]benzoic acid] | 480 | 55.3
COc1ccc2c(c1)O[C@@H](c1ccc(C(=O)O)cc1)C[C@H]2NC(=O)C(C)(C)Oc1ccc(C#N)cc1 [Example 107, 4-{(2R,4R)-4-[2-(4-cyanophenoxy)-2-methylpropanamido]-7-methoxy-3,4-dihydro-2H-1-benzopyran-2-yl}benzoic acid] | 1320 | 22.4
COc1ccc2c(c1)O[C@@H](c1ccc(C(=O)O)cc1)C[C@H]2NC(=O)C(C)(C)c1ccc(OC(F)(F)F)cc1 [Example 109, 4-[(2R,4R)-7-methoxy-4-{2-methyl-2-[4-(trifluoromethoxy)phenyl]propanamido}-3,4-dihydro-2H-1-benzopyran-2-yl]benzoic acid] | 1360 | 93.0
COc1ccc2c(c1)O[C@@H](c1ccc(C(=O)O)cc1)C[C@H]2NC(=O)C(C)(C)c1ccc(Cl)cc1 [Example 110, 4-{(2R,4R)-4-[2-(4-chlorophenyl)-2-methylpropanamido]-7-methoxy-3,4-dihydro-2H-1-benzopyran-2-yl}benzoic acid] | 310 | 85.0

More lines, now with the values ahead:

EC50 [nM] | Maximum % activity [%] | Compound
> 20000 | 8.1 | COc1ccc2c(c1)O[C@@H](c1ccc(C(=O)O)cc1)C[C@H]2NC(=O)C1(c2cccc(F)c2)CCCC1 [Example 90, 4-[(2R,4R)-4-{[1-(3-fluorophenyl)cyclopentane-1-carbonyl]amino}-7-methoxy-3,4-dihydro-2H-1-benzopyran-2-yl]benzoic acid]
> 20000 | 5.0 | COc1ccc2c(c1)O[C@@H](c1ccc(C(=O)O)cc1)C[C@H]2NC(=O)C1(c2ccccc2F)CCCC1 [Example 91, 4-[(2R,4R)-4-{[1-(2-fluorophenyl)cyclopentane-1-carbonyl]amino}-7-methoxy-3,4-dihydro-2H-1-benzopyran-2-yl]benzoic acid]
2630 | 49.0 | COc1ccc2c(c1)O[C@@H](c1ccc(C(=O)O)cc1)C[C@H]2NC(=O)C1(c2ccccc2Br)CCC1 [Example 94, 4-[(2R,4R)-4-{[1-(2-bromophenyl)cyclobutane-1-carbonyl]amino}-7-methoxy-3,4-dihydro-2H-1-benzopyran-2-yl]benzoic acid]
3010 | 33.0 | COc1ccc2c(c1)O[C@@H](c1ccc(C(=O)O)cc1)C[C@H]2NC(=O)C1(c2ccccc2Cl)CCC1 [Example 96, 4-[(2R,4R)-4-{[1-(2-chlorophenyl)cyclobutane-1-carbonyl]amino}-7-methoxy-3,4-dihydro-2H-1-benzopyran-2-yl]benzoic acid]
> 20000 | 2.5 | COc1ccc2c(c1)O[C@@H](c1ccc(C(=O)O)cc1)C[C@H]2NC(=O)C1(c2ccccc2)CCCC1 [Example 97, 4-{(2R,4R)-7-methoxy-4-[(1-phenylcyclopentane-1-carbonyl)amino]-3,4-dihydro-2H-1-benzopyran-2-yl}benzoic acid]
660 | 46.0 | COc1ccc2c(c1)O[C@@H](c1ccc(C(=O)O)cc1)C[C@H]2NC(=O)C1(c2cccc(Cl)c2)CC1 [Example 101, 4-[(2R,4R)-4-{[1-(3-chlorophenyl)cyclopropane-1-carbonyl]amino}-7-methoxy-3,4-dihydro-2H-1-benzopyran-2-yl]benzoic acid]
> 20000 | 18.1 | COc1ccc2c(c1)O[C@@H](c1ccc(C(=O)O)cc1)C[C@H]2NC(=O)C1(c2ccccc2)CCC1 [Example 102, 4-{(2R,4R)-7-methoxy-4-[(1-phenylcyclobutane-1-carbonyl)amino]-3,4-dihydro-2H-1-benzopyran-2-yl}benzoic acid]
4010 | 29.0 | COc1ccc2c(c1)O[C@@H](c1ccc(C(=O)O)cc1)C[C@H]2NC(=O)C1(c2ccccc2OC)CC1 [Example 103, 4-[(2R,4R)-7-methoxy-4-{[1-(2-methoxyphenyl)cyclopropane-1-carbonyl]amino}-3,4-dihydro-2H-1-benzopyran-2-yl]benzoic acid]
1560 | 71.0 | COc1ccc2c(c1)O[C@@H](c1ccc(C(=O)O)cc1)C[C@H]2NC(=O)C1(c2ccc(Br)cc2)CCC1 [Example 104, 4-[(2R,4R)-4-{[1-(4-bromophenyl)cyclobutane-1-carbonyl]amino}-7-methoxy-3,4-dihydro-2H-1-benzopyran-2-yl]benzoic acid]
1290 | 46.0 | COc1ccc2c(c1)O[C@@H](c1ccc(C(=O)O)cc1)C[C@H]2NC(=O)C1(c2ccccc2F)CC1 [Example 106, 4-[(2R,4R)-4-{[1-(2-fluorophenyl)cyclopropane-1-carbonyl]amino}-7-methoxy-3,4-dihydro-2H-1-benzopyran-2-yl]benzoic acid]
170 | 77.7 | COc1ccc2c(c1)O[C@@H](c1ccc(C(=O)O)cc1)C[C@H]2NC(=O)C1(c2ccc(Cl)cc2)CC1 [Example 108, 4-[(2R,4R)-4-{[1-(4-chlorophenyl)cyclopropane-1-carbonyl]amino}-7-methoxy-3,4-dihydro-2H-1-benzopyran-2-yl]benzoic acid]
